Test results from patent publication US20260015574A1, “METHODS FOR SHORTENING LAG PHASE DURATION IN MICROORGANISMS” (YEDA RESEARCH AND DEVELOPMENT CO. LTD., priority 2022, published 2026).

Assays:
[1] = system: methyl group metabolism pathway genes of P. inhibens; experiment: Lag phase transcriptome (dual RNA-sequencing) of DMSP-treated bacteria; type: cell-based, Phaeobacter inhibens; conditions: 50 μM DMSP, within the first 15 min and 40 min of the lag phase, vs untreated
Method: The bacterium P. inhibens DSM 17395 was co-cultivated with the alga Emiliania huxleyi CCMP3266 (purchased from Bigelow Laboratory for Ocean Sciences, East Boothbay, ME) to investigate the metabolic response of the bacterium in the presence of algae, compared to bacteria grown as pure culture with 2 mM glucose. The analysis was conducted using a dual RNA-Sequencing method adapted from Avraham et al. 2016. The adapted method was previously described by Sperfeld et al., 2021. […] The resulting gene expression data, together with data from public databases (BioCyc and KEGG), were used to reconstruct the methyl group metabolism in P. inhibens DSM 17395 (FIG. 1C). The same dual RNA-sequencing method was used to identify genes that are differentially expressed during the lag phase of P. inhibens pure cultures treated with 50 μM DMSP, compared to control cultures without added DMSP (FIGS. 10A, and 11A-11B).
To further elucidate the fate of methyl groups, the inventors analyzed the transcriptome of DMSP-treated P. inhibens bacteria during the lag phase, and compared it to untreated control cultures. […] To further establish that DMSP methyl groups are assimilated via the methionine cycle, the inventors measured the methionine synthesis activity in protein crude extracts of stationary bacterial cells, using a biochemical assay followed by LC/MS analysis. […]

[2] = system: P. inhibens; experiment: Imaging flow cytometry of bacterial populations during the lag phase; type: cell-based, Phaeobacter inhibens; conditions: DMSP-treated cultures
Method: The bacterial strain Phaeobacter inhibens DSM 17395 was purchased from the German collection of microorganisms and cell cultures (DSMZ, Braunschweig, Germany) and stored at −80° C. with 20% glycerol. Routine cultivation of P. inhibens was conducted at 30° C. in artificial seawater medium (ASW) based on Goyet and Poisson (1989). […] A 96-well Tecan Infinite M Plex plate reader was used for high-resolution monitoring of bacterial growth dynamics at 30° C. […] The growth of bacteria in co-culture with algae was monitored by counting colony forming units (CFU) on ½ YTSS agar plates. The growth of algae was monitored with a CellStream flow cytometer (Merck, Darmstadt, Germany).
To reflect the natural low bacterial abundance in the oligotrophic ocean with low microalgal productivity, the current bacterial growth experiments were routinely initiated with an optical density (OD) of 0.00001. […] To determine the actual length of the lag phase, the inventors analyzed bacterial cultures using imagining flow cytometry. […]

[3] = system: methionine synthesis activity in P. inhibens protein crude extracts; experiment: Methionine synthesis activity assay with P. inhibens protein crude extracts; type: biochemical, Phaeobacter inhibens; conditions: crude extracts of stationary bacterial cells treated with 1 μM DMSP for 2 hours; LC/MS
Method: The bacterium P. inhibens DSM 17395 was cultivated in 100 mL ASW with 5.5 mM glucose until reaching stationary phase, and then treated with 1 μM DMSP for 2 hours. Cell pellets of control and treated bacteria were harvested by 10 min centrifugation (15,000 rpm) at 4° C. The pellets were washed with buffer A (50 mM Hepes-KOH PH 7.5), resuspended in buffer B (50 mM Hepes-KOH PH 7.5, 10 mM β-mercaptoethanol, 1 mM EDTA) and disrupted by 5 min bead beating at 30 s^−1 with 300 mg silica beads (Mixer Mill MM-400, Retsch, Haan, Germany). The supernatant was collected by 5 min centrifugation (15,000 rpm). To measure the activity of enzymatic DMSP demethylation and methionine formation, 0.5 mL crude extract (1 mg/mL protein; determined with Bio-Rad protein assay, Hercules, California, U.S.) were incubated for 1 h with 1 mL Buffer C (60 mM PPB, 4.5 mM homocysteine, 4.5 mM DMSP, pH 7.5). The reaction mix was snap frozen in liquid nitrogen, and subsequently analyzed for product formation using LC/MS (FIG. 10).
To further elucidate the fate of methyl groups, the inventors analyzed the transcriptome of DMSP-treated P. inhibens bacteria during the lag phase, and compared it to untreated control cultures. […]

[4] = system: E. coli; experiment: Lag phase shortening in E. coli; type: cell-based, Escherichia coli; conditions: treatment with algal metabolites
Text: To explore whether lag phase shortening is a general mechanism among bacteria, the inventors tested the effect of methylated compounds in bacteria with different lifestyles. […] Since methylated compounds are a hallmark of photosynthesizing organisms, the inventors next tested a variety of bacteria that are plant-associated. […] Finally, to establish the prevalence of lag phase shortening among bacteria, the inventors tested the model bacterium E. coli. This bacterium is not commonly found associated with photosynthesizing organisms, and thus, is unlikely to respond to algal metabolites. […] The synchrony between specific compounds and different groups of bacteria may reflect the natural context […].

## C[S+](C)CCC(=O)[O-] [DMSP, dimethylsulfoniopropionate]
[1]
  expression of the methyl group metabolism pathway: upregulated
[2]
  time at which transition from aggregates to single-celled bacteria is concluded: 3 h
[3]
  methionine synthesis activity: elevated
[4]
  lag phase shortening: did not shorten the lag phase
